Assays:
[1] = target: Src kinase SH3 domain protein (Homo sapiens (Human), UniProt P12931); assay: Surface plasmon resonance (SPR) determination of dissociation constants with SH3 protein; assay type: binding; details: SH3 protein coupled to CM5 chip
Description: 1. Experimental method: Surface plasmon resonance test was carried out on BIACORE T200 instrument (GE Company). Fresh purified grade Src kinase SH3 domain protein (concentration 2 mg/ml) was diluted to 0.1 mg/ml with 10 mM CH3COONa (pH 4.2) and then SH3 protein was coupled to the CM5 chip by standard amino coupling methods. The compounds of the invention were diluted in a gradient using a buffer solution (20 mM Tris-HCl, PH 8.0, 100 mM NaCl) for 60 seconds and dissociated for 120 seconds at a flow rate of […], respectively. The changes in response values over time were recorded and analyzed by the BIA Evaluation Software (GE Healthcare) program to obtain the dissociation constants KD for the different compounds with SH3 protein.
2. Experimental results and conclusions: The dissociation constants KD of different compounds and SH3 protein were described in Table 2, and the surface plasmon resonance (SPR) experimental results of some compounds were shown in FIG. 1.

[2] = test system: platelets on solid phase fibrinogen; assay: Effect of compound on platelet stretching on solid phase fibrinogen; assay type: cell-based; details: 1 h, washed platelets, incubated 60 min at 37° C., read-out: Concentration range for compounds that inhibit platelet stretching on fibrinogen
Description: 1. Experimental method: Firstly, 50 μl fibrinogen (0.1M, diluted with pH 8.3 sodium bicarbonate, 20 μg/ml) was added to 96-well plate, and coated overnight at 4° C. After being washed by PBS for 3 times in the morning, sealed with bovine serum albumin (20 mg/ml) at 37° C. for 60 min, then 100 μl of washed platelet suspension was taken, and added into compounds in each group to make the final concentration 250 μM, and incubated at 37° C. for 60 min. 50 μl of incubated platelets were added to 96-well plate, adhered in a temperature box at 37° C. for 60 min, unadhered platelets were removed by PBS washing for 3 times, and adhered platelets were stably fixed with 4% paraformaldehyde, and washed with PBS for 3 times. Then the platelet membrane was perforated with 0.5% Triton X-100, and then the platelet was stained with 0.5 μg/ml phalloidin-rhodamine for 60 min at 37° C. and washed 3 times (10 min each) with PBS.
2. Experimental results and conclusions: The concentration of different compounds on platelet stretching on fibrinogen was shown in Table 3, and the inhibitory effect of some compounds on platelet stretching was shown in FIG. 2.

Chain of Src kinase SH3 domain protein (P12931 whole entry, looked up, the tested form may be a part): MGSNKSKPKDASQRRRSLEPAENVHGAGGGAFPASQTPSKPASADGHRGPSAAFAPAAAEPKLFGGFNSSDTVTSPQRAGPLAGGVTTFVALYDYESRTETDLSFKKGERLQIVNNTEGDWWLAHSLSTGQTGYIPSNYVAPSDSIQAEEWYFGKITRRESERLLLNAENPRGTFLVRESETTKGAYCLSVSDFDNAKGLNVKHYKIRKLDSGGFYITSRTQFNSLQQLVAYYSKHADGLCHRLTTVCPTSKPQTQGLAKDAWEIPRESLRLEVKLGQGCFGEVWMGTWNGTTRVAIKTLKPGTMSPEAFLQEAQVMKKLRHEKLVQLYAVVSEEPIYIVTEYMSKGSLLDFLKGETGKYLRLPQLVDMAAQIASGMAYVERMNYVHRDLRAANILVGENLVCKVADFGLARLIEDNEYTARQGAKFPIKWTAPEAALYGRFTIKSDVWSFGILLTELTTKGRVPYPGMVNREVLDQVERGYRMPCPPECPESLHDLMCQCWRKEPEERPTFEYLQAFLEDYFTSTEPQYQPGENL

CCOC(=O)c1c(CNC(=N)N)n(C)c2cc(-c3cncc4ccccc34)ccc12 [SYY-C073]
Kd [1]: < 1000 nM | minimal effective concentration [2]: 10 to 100 µM

CCOC(=O)c1c(CNC(=N)N)n(C)c2cc(-c3cccc4cnccc34)ccc12 [SYY-C074]
Kd [1]: 10000 to 100000 nM | minimal effective concentration [2]: 10 to 100 µM

CCOC(=O)c1c(CNC(=N)N)n(C)c2cc(-c3cccc4cccnc34)ccc12 [SYY-C075]
Kd [1]: < 1000 nM | minimal effective concentration [2]: 10 to 100 µM

CCOC(=O)c1c(CNC(=N)N)n(C)c2cc(-c3ccc(F)c4ccccc34)ccc12 [SYY-C076]
Kd [1]: 1000 to 10000 nM | minimal effective concentration [2]: 100 to 250 µM

CCOC(=O)c1c(CNC(=N)N)n(C)c2cc(-c3cccc4ccncc34)ccc12 [SYY-C077]
Kd [1]: < 1000 nM | minimal effective concentration [2]: 10 to 100 µM

CCOC(=O)c1c(CNC(=N)N)n(C)c2cc(-c3c4ccccc4cc4ccccc34)ccc12 [SYY-C078]
Kd [1]: < 1000 nM | minimal effective concentration [2]: 10 to 100 µM

CCOC(=O)c1c(CNC(=N)N)n(C(C)C)c2cc(-c3cccc4ccccc34)ccc12 [SYY-C079]
Kd [1]: < 1000 nM | minimal effective concentration [2]: 10 to 100 µM

CCOC(=O)c1c(CNC(=N)N)n(C)c2cc(-c3cccc4cc(C)ccc34)ccc12 [SYY-C080]
Kd [1]: < 1000 nM | minimal effective concentration [2]: 10 to 100 µM

CCOC(=O)c1c(CNC(=N)N)n(C)c2cc(-c3cccc4c(C)cccc34)ccc12 [SYY-C081]
Kd [1]: < 1000 nM | minimal effective concentration [2]: 10 to 100 µM

CCOC(=O)c1c(CNC(=N)N)n(-c2ccccc2)c2cc(-c3cccc4ccccc34)ccc12 [SYY-C082]
Kd [1]: < 1000 nM | minimal effective concentration [2]: 10 to 100 µM

CCOC(=O)c1c(CNC(=N)N)n(C)c2cc(-c3ccc(Cl)c4ccccc34)ccc12 [SYY-C083]
Kd [1]: 1000 to 10000 nM | minimal effective concentration [2]: 100 to 250 µM

CCOC(=O)c1c(CNC(=N)N)n(C)c2cc(-c3cccc4c(Cl)cccc34)ccc12 [SYY-C084]
Kd [1]: < 1000 nM | minimal effective concentration [2]: 10 to 100 µM

CCOC(=O)c1c(CNC(=N)N)n(C)c2cc(-c3cc(C)cc4ccccc34)ccc12 [SYY-C085]
Kd [1]: < 1000 nM | minimal effective concentration [2]: 10 to 100 µM

CCOC(=O)c1c(CNC(=N)N)n(C)c2cc(C3=CCOc4ccccc43)ccc12 [SYY-C086]
Kd [1]: < 1000 nM | minimal effective concentration [2]: 10 to 100 µM

CCOC(=O)c1c(CNC(=N)N)n(C)c2cc(-c3cccc4ccc(C)cc34)ccc12 [SYY-C087]
Kd [1]: 10000 to 100000 nM | minimal effective concentration [2]: 100 to 250 µM

CCOC(=O)c1c(CNC(=N)N)n(C)c2cc(-c3c4c(cc5c3CCCC5)CCCC4)ccc12 [SYY-C088]
Kd [1]: 10000 to 100000 nM | minimal effective concentration [2]: 100 to 250 µM

CCOC(=O)c1c(CNC(=N)N)n(C)c2cc(-c3cccc4c(F)cccc34)ccc12 [SYY-C089]
Kd [1]: < 1000 nM | minimal effective concentration [2]: 10 to 100 µM

CCOC(=O)c1c(CNC(=N)N)n(C)c2cc(-c3cc(Cl)cc4ccccc34)ccc12 [SYY-C090]
Kd [1]: 1000 to 10000 nM | minimal effective concentration [2]: 100 to 250 µM

CCOC(=O)c1c(CNC(=N)N)n(C)c2cc(-c3cccc4cccc(C)c34)ccc12 [SYY-C091]
Kd [1]: < 1000 nM | minimal effective concentration [2]: 10 to 100 µM

CCOC(=O)c1c(CNC(=N)N)n(C)c2cc(-c3cc(F)cc4ccccc34)ccc12 [SYY-C092]
Kd [1]: 10000 to 100000 nM | minimal effective concentration [2]: 100 to 250 µM

CCOC(=O)c1c(CNC(=N)N)n(C)c2cc(-c3cccc4cc(Cl)ccc34)ccc12 [SYY-C093]
Kd [1]: < 1000 nM | minimal effective concentration [2]: 10 to 100 µM

CCOC(=O)c1c(CNC(=N)N)n(C)c2cc(-c3cccc4cccc(Cl)c34)ccc12 [SYY-C095]
Kd [1]: 10000 to 100000 nM | minimal effective concentration [2]: 10 to 100 µM

CCOC(=O)c1c(CNC(=N)N)n(C)c2cc(-c3cccc4cccc(F)c34)ccc12 [SYY-C096]
Kd [1]: < 1000 nM | minimal effective concentration [2]: 10 to 100 µM

CCOC(=O)c1c(CNC(=N)N)n(C)c2cc(-c3cccc4ccc(F)cc34)ccc12 [SYY-C097]
Kd [1]: 10000 to 100000 nM | minimal effective concentration [2]: 10 to 100 µM

CCOC(=O)c1c(CNC(=N)N)n(C)c2cc(-c3cccc4cc(F)ccc34)ccc12 [SYY-C098]
Kd [1]: < 1000 nM | minimal effective concentration [2]: 10 to 100 µM

CNC(=O)c1c(CNC(=N)N)n(C)c2cc(-c3cccc4ccccc34)ccc12 [SYY-C099]
Kd [1]: < 1000 nM | minimal effective concentration [2]: 10 to 100 µM

CN(C)C(=O)c1c(CNC(=N)N)n(C)c2cc(-c3cccc4ccccc34)ccc12 [SYY-C100]
Kd [1]: 1000 to 10000 nM | minimal effective concentration [2]: 100 to 250 µM

Cn1c(CNC(=N)N)c(C(N)=O)c2ccc(-c3cccc4ccccc34)cc21 [SYY-C101]
Kd [1]: < 1000 nM | minimal effective concentration [2]: 10 to 100 µM

Cn1c(CNC(=N)N)c(C#N)c2ccc(-c3cccc4ccccc34)cc21 [SYY-C102]
Kd [1]: < 1000 nM | minimal effective concentration [2]: 10 to 100 µM

CCOC(=O)c1c(CNC(=N)N)n(C)c2cc(-c3cccc4ccccc34)c(OC)cc12 [SYY-C103]
Kd [1]: 1000 to 10000 nM | minimal effective concentration [2]: 100 to 250 µM

CCOC(=O)c1c(CNC(=N)N)n(C)c2cc(-c3cccc4ccccc34)c(Cl)cc12 [SYY-C104]
Kd [1]: < 1000 nM | minimal effective concentration [2]: 10 to 100 µM

CC(=O)Nc1c(CNC(=N)N)n(C)c2cc(-c3cccc4ccccc34)ccc12 [SYY-C105]
Kd [1]: < 1000 nM | minimal effective concentration [2]: 10 to 100 µM

CCOC(=O)c1c(CNC(=N)N)oc2cc(-c3cccc4ccccc34)ccc12 [SYY-C106]
Kd [1]: 1000 to 10000 nM | minimal effective concentration [2]: 100 to 250 µM

CCOC(=O)c1c(CNC(=N)N)sc2ccc(-c3cccc4ccccc34)cc12 [SYY-C107]
Kd [1]: < 1000 nM | minimal effective concentration [2]: 10 to 100 µM

CCOC(=O)c1c(CNC(=N)N)sc2cc(-c3cccc4ccccc34)ccc12 [SYY-C108]
Kd [1]: 10000 to 100000 nM | minimal effective concentration [2]: 100 to 250 µM

CCOC(=O)c1c(CNC(=N)N)n(C)c2cc(-c3cccc4ccccc34)c(Br)cc12 [SYY-C109]
Kd [1]: < 1000 nM | minimal effective concentration [2]: 10 to 100 µM

CCOC(=O)c1c(CNC(=N)N)n(C)c2cc(-c3cccc4ccccc34)c(OC3CCCC3)cc12 [SYY-C110]
Kd [1]: < 1000 nM | minimal effective concentration [2]: 10 to 100 µM

CCOC(=O)c1c(CNC(=N)N)n(C)c2cc(-c3cccc4ccccc34)c(C3=CCCC3)cc12 [SYY-C111]
Kd [1]: 1000 to 10000 nM | minimal effective concentration [2]: 100 to 250 µM

CCOC(=O)c1c(CNC(=N)N)n(C)c2cc(-c3cccc4ccccc34)c(C3CC3)cc12 [SYY-C112]
Kd [1]: < 1000 nM | minimal effective concentration [2]: 10 to 100 µM

CCOC(=O)c1c(CNC(=N)N)n(C)c2cc(-c3cccc4ccccc34)c(C3CCCC3)cc12 [SYY-C113]
Kd [1]: < 1000 nM | minimal effective concentration [2]: 10 to 100 µM

CCOC(=O)c1c(CNC(=N)N)n(C)c2cc(OC)c(-c3cccc4ccccc34)cc12 [SYY-C114]
Kd [1]: 10000 to 100000 nM | minimal effective concentration [2]: 10 to 100 µM

CCOC(=O)c1c(CNC(=N)N)n(C)c2cc(OC3CCCC3)c(-c3cccc4ccccc34)cc12 [SYY-C115]
Kd [1]: < 1000 nM | minimal effective concentration [2]: 10 to 100 µM

CCOC(=O)c1c(CNC(=N)N)n(C)c2cc(C3=CCCC3)c(-c3cccc4ccccc34)cc12 [SYY-C116]
Kd [1]: < 1000 nM | minimal effective concentration [2]: 10 to 100 µM

CCOC(=O)c1c(CNC(=N)N)n(C)c2cc(C3CCCC3)c(-c3cccc4ccccc34)cc12 [SYY-C117]
Kd [1]: 10000 to 100000 nM | minimal effective concentration [2]: 100 to 250 µM

CCOC(=O)c1c(CNC(=N)N)n(C)c2cc(Cl)c(-c3cccc4ccccc34)cc12 [SYY-C118]
Kd [1]: < 1000 nM | minimal effective concentration [2]: 10 to 100 µM

CCOC(=O)c1c(CNC(=N)N)n(C)c2cc(Br)c(-c3cccc4ccccc34)cc12 [SYY-C119]
Kd [1]: < 1000 nM | minimal effective concentration [2]: 10 to 100 µM

CCOC(=O)c1c(CNC(=N)N)n(C)c2cc(C3CC3)c(-c3cccc4ccccc34)cc12 [SYY-C120]
Kd [1]: < 1000 nM | minimal effective concentration [2]: 10 to 100 µM

CCOC(=O)c1c(CNC(=N)N)sc2cc(-c3cccc4ccccc34)c(C3CCCC3)cc12 [SYY-C121]
Kd [1]: 1000 to 10000 nM | minimal effective concentration [2]: 100 to 250 µM

CCOC(=O)c1c(CNC(=N)N)sc2cc(-c3cccc4ccccc34)c(C3CCCCC3)cc12 [SYY-C122]
Kd [1]: < 1000 nM | minimal effective concentration [2]: 10 to 100 µM

CCOC(=O)c1c(CNC(=N)N)sc2cc(-c3cccc4ccccc34)c(C3=CCCC3)cc12 [SYY-C123]
Kd [1]: 10000 to 100000 nM | minimal effective concentration [2]: 100 to 250 µM

CCOC(=O)c1c(CNC(=N)N)sc2cc(-c3cccc4ccccc34)c(C3=CCCCC3)cc12 [SYY-C124]
Kd [1]: < 1000 nM | minimal effective concentration [2]: 10 to 100 µM

CCOC(=O)c1c(CNC(=N)N)sc2cc(-c3cccc4ccccc34)c(OC)cc12 [SYY-C125]
Kd [1]: < 1000 nM | minimal effective concentration [2]: 10 to 100 µM

CCOC(=O)c1c(CNC(=N)N)sc2cc(-c3cccc4ccccc34)c(OC3CCCC3)cc12 [SYY-C126]
Kd [1]: < 1000 nM | minimal effective concentration [2]: 10 to 100 µM

CCOC(=O)c1c(CNC(=N)N)sc2cc(-c3cccc4ccccc34)c(OC3CCCCC3)cc12 [SYY-C127]
Kd [1]: < 1000 nM | minimal effective concentration [2]: 10 to 100 µM

CCOC(=O)c1c(CNC(=N)N)sc2cc(-c3cccc4ccccc34)c(Oc3ccccc3)cc12 [SYY-C128]
Kd [1]: 10000 to 100000 nM | minimal effective concentration [2]: 100 to 250 µM

Reference: patent publication US20250289812A1, “COMPOUND FOR TREATING THROMBOTIC DISEASES” (SHANGHAI INSTITUTE OF MATERIA MEDICA, CHINESE ACADEMY OF …, priority 2020, published 2025)
